Measured values reported in US20230090708A1, “METHODS AND COMPOSITIONS FOR THE TREATMENT OF HEMANGIOMA” (MASSEY VENTURES LIMITED, priority 2020, published 2023).
Values after ≈ are worked out from the molar mass of the structure shown. Where two headings read alike, the source gives them in different places.

What was measured:
[1] = cited from earlier work; for Half life: in vivo; for Half life: short or long acting: in words
[2] = test system: proliferating hemangioma cells; assay: Experiment 7: different ACEi and beta blockers on one primary cell line, MTT; format: cell-based, human; conditions: for inhibition of proliferating hemangioma cells: 1 μM and 10 μM; for Results Summary: 72 hours, one cell line; for inhibition at 1 µM / inhibition at 10 µM: Homo sapiens, 72 h, read-out: Inhibition vs. Cells + Adjuvant at 72 Hours
Procedure: (§1) An in vitro cell culture model of infantile hemangioma was developed to assess the impact of renin-angiotensin system inhibitors on cellular proliferation. A primary cell line of proliferating infantile hemangioma cells, including haemangioma stem cells, was derived from a tissue biopsy obtained from patients during the proliferating phase of the disease. The primary cell lines are cultured in 25 cm^2 flasks using standard culture media and conditions. The cultured cells are used to seed 96-well plates with a seed cell concentration of 2500 or 5000 cells per well, with additional culture media (200 μL). All studies are performed in triplicate.
The plates are incubated overnight to allow cell adherence to the wells. The wells are photographed to confirm cell adherence and confluency. The appropriate drug(s) to be examined are subsequently added to the wells. […] The media is aspirated from each well and stored frozen for possible future analyses. Media is added to the wells and an MTT determination is undertaken according to standard protocols.
(§2) From the triplicate incubations of each drug concentration at each time, as well as for all controls, the mean±standard deviation is calculated. The net survival (optical density value) is calculated by subtracting the appropriate blank mean value from each cell culture. From the MTT data, the percentage of survival of cells in the presence of each concentration of drug after each time of culturing is determined.
Briefly, cells were seeded in 96-well plates at concentrations of 2500 cells/well in triplicate for each drug and drug combination. […] All plates were performed in triplicate. Beta blockers used in the study were (±)-propranolol, R-propranolol, S-propranolol, timolol, and betaxalol.

[3] = cited from earlier work
[4] = cited from earlier work; for Log P: Table 1
proliferating IH = conditions: cited from earlier work
[5] = cited from earlier work; remark: listed apart in the source
[6] = test system: proliferating infantile hemangioma cells derived from multiple patients (n=5); assay: Example 4: single agents and combinations on five patient-derived cell lines, MTT; format: cell-based, human; conditions: for Individual Responders at 72 Hours with ≥30% Inhibition vs. Cells + Adjuvant: responders/cell lines; for Results Summary: 72 hours, n=5 cell lines; for Estimated Optimal Dosage Range in vitro / inhibition of all five patient-derived haemangioma cell lines: single agent
Procedure: An in vitro cell culture model of infantile hemangioma was developed to assess the impact of renin-angiotensin system inhibitors on cellular proliferation. A primary cell line of proliferating infantile hemangioma cells, including haemangioma stem cells, was derived from a tissue biopsy obtained from patients during the proliferating phase of the disease. The primary cell lines are cultured in 25 cm^2 flasks using standard culture media and conditions. The cultured cells are used to seed 96-well plates with a seed cell concentration of 2500 or 5000 cells per well, with additional culture media (200 μL). All studies are performed in triplicate. The plates are incubated overnight to allow cell adherence to the wells. The wells are photographed to confirm cell adherence and confluency. The appropriate drug(s) to be examined are subsequently added to the wells. After 24 hours, one set of plates (experimental and blank) is stopped. The media is aspirated from each well and stored frozen for possible future analyses. Media is added to the wells and an MTT determination is undertaken according to standard protocols. This is repeated at 48 and 72 hours. From the triplicate incubations of each drug concentration at each time, as well as for all controls, the mean±standard deviation is calculated. The net survival (optical density value) is calculated by subtracting the appropriate blank mean value from each cell culture. From the MTT data, the percentage of survival of cells in the presence of each concentration of drug after each time of culturing is determined. […] The experimental protocol was performed as per Example 1. Briefly, cells were seeded in 96-well plates at a concentration of 2500 cells/well in triplicate for each drug and drug combination. Drug(s) were added to each well 24 hours after seeding and re-dosed every 24 hours. Cell viability was assessed by MTT assay after 24, 48, and 72 hours. All plates were performed in triplicate. Drugs were assessed alone and in combination as described in Table 3.

[7] = test system: proliferating hemangioma cells; assay: Example 5: R- and S-beta blockers alone and with cilazapril, MTT; format: cell-based, human
Procedure: An in vitro cell culture model of infantile hemangioma was developed to assess the impact of renin-angiotensin system inhibitors on cellular proliferation. A primary cell line of proliferating infantile hemangioma cells, including haemangioma stem cells, was derived from a tissue biopsy obtained from patients during the proliferating phase of the disease. The primary cell lines are cultured in 25 cm^2 flasks using standard culture media and conditions. The cultured cells are used to seed 96-well plates with a seed cell concentration of 2500 or 5000 cells per well, with additional culture media (200 μL). All studies are performed in triplicate. The plates are incubated overnight to allow cell adherence to the wells. The wells are photographed to confirm cell adherence and confluency. The appropriate drug(s) to be examined are subsequently added to the wells. After 24 hours, one set of plates (experimental and blank) is stopped. The media is aspirated from each well and stored frozen for possible future analyses. Media is added to the wells and an MTT determination is undertaken according to standard protocols. This is repeated at 48 and 72 hours. From the triplicate incubations of each drug concentration at each time, as well as for all controls, the mean±standard deviation is calculated. The net survival (optical density value) is calculated by subtracting the appropriate blank mean value from each cell culture. From the MTT data, the percentage of survival of cells in the presence of each concentration of drug after each time of culturing is determined. The experimental protocol was performed as per Example 1. Briefly, cells were seeded in 96-well plates at concentrations of 2500 cells/well in triplicate for each drug and drug combination. Drug(s) were added to each well 24 hours after seeding and re-dosed every 24 hours. Cell viability was assessed by MTT assay after 24, 48, and 72 hours. All plates were performed in triplicate. […] Timolol and propranolol were used as model beta blockers and cilazapril as a model ACE inhibitor.

[8] = test system: proliferating hemangioma cell lines (n=9); assay: Example 6: single agents and combinations on nine primary cell lines, MTT, CompuSyn combination index; format: cell-based, human; conditions: for dose-response across all cell lines: 1 to 10 μM, 72 hours, n=9
Procedure: as §1
The plates are incubated overnight to allow cell adherence to the wells. The wells are photographed to confirm cell adherence and confluency. The appropriate drug(s) to be examined are subsequently added to the wells. After 24 hours, one set of plates (experimental and blank) is stopped. The media is aspirated from each well and stored frozen for possible future analyses. Media is added to the wells and an MTT determination is undertaken according to standard protocols. This is repeated at 48 and 72 hours.
as §2
A study was undertaken using combinations of ACE inhibitors, beta blockers and angiotensin II type 2 receptor blockers to inhibit proliferating hemangioma cells. […] Patient histories pertaining to each cell line is described in Table 5.
The experimental protocol was performed as per Example 1. Briefly, cells were seeded in 96-well plates at concentrations of 2500 cells/well in triplicate for each drug and drug combination. Drug(s) were added to each well 24 hours after seeding and re-dosed every 24 hours. Cell viability was assessed by MTT assay after 24, 48, and 72 hours. All plates were performed in triplicate. Drugs were assessed alone and in combination, as described in Table 6. Propranolol was used as a model beta blocker, cilazapril as a model ACE inhibitor, and SMM02 (L-159686) as a model AT2Ri. Synergy was measured using the CompuSyn open-source software protocol for quantifying synergism and antagonism that uses the median-effect equation and mass-action laws to generate a combination index (www.compusyn.com). Synergism, additive effects and antagonism are defined as a CI<1, CI=1, and CI>1, respectively.

C[C@H](N[C@@H](CCc1ccccc1)C(=O)O)C(=O)N1CCC[C@H]1C(=O)O [enalaprilat]
Half life [1]: 11 h (enalaprilat)

C[C@H](N[C@@H](CCc1ccccc1)C(=O)O)C(=O)N1[C@H](C(=O)O)C[C@@H]2CCC[C@@H]21 [Ramiprilat, ramiprilat]
Half life [1]: 13 to 17 h

CCOC(=O)[C@H](CCc1ccccc1)N[C@@H](C)C(=O)N1Cc2ccccc2C[C@H]1C(=O)O [Quinapril]
inhibition of proliferating hemangioma cells [2]: good and similar level of inhibition | Results Summary [2]: Responder | inhibition at 1 µM ([2]; 1 μM): 4.87% | inhibition at 10 µM ([2]; 10 μM): 62.3% | Half life: short or long acting [1]: Short acting | pKa [3]: 3.7 | pKa ([3]; second value): 5.2 | Log P [4]: 3.2 | log P [4]: 3.2

C[C@H](CS)C(=O)N1CCC[C@H]1C(=O)O [Captopril]
patients with response scored dramatic (proliferating IH; n of eight patients): 3 | patients with response scored medium (proliferating IH; n of eight patients): 2 | patients with response scored slow (proliferating IH; n of eight patients): 3 | effect on proliferating IH (proliferating IH; oral 1.5 mg/kg daily, eight patients): positive effect in all patients | rebound growth after treatment ceased (proliferating IH; treatment ceased after 14 months): no rebound growth | Solubility [5]: 130 mg/mL (≈ 598 mM)

COc1ccc2c(c1OCc1ccccc1)C[C@@H](C(=O)O)N(C(=O)C(c1ccccc1)c1ccccc1)C2 [EMA401, (S)-5-(benzyloxy)-2-(2,2-diphenylacetyl)-6-methoxy-1,2,3,4-tetrahydroisoquinoline-3-carboxylic acid]
Individual Responders at 72 Hours with ≥30% Inhibition vs. Cells + Adjuvant ([6]; 1 μM): 1 μM - ¼ | Individual Responders at 72 Hours with ≥30% Inhibition vs. Cells + Adjuvant ([6]; 10 μM): 10 μM - 4/5 | Individual Responders at 72 Hours with ≥30% Inhibition vs. Cells + Adjuvant ([6]; 100 μM): 100 μM - 5/5 | Results Summary [6]: Responder | Estimated Optimal Dosage Range in vitro [6]: 5 to 25 µM | inhibition of all five patient-derived haemangioma cell lines [6]: significantly inhibited

C[C@H](N[C@@H](CCc1ccccc1)C(=O)O)C(=O)N1Cc2ccccc2C[C@H]1C(=O)O [Quinaprilat, quinaprilat]
Half life [1]: 3 h (quinaprilat)

CCOC(=O)[C@H](CCc1ccccc1)N[C@@H](C)C(=O)N1[C@H](C(=O)O)C[C@H]2CCCC[C@@H]21 [Trandolapril]
inhibition of proliferating hemangioma cells [2]: good and similar level of inhibition | Results Summary [2]: Responder | inhibition at 1 µM ([2]; 1 μM): 0.63% | inhibition at 10 µM ([2]; 10 μM): 67.8% | Half life [1]: 6 h | Half life: short or long acting [1]: Long acting | pKa [3]: 3.8 | pKa ([3]; second value): 5.2 | Log P [4]: 3.5 | log P [4]: 3.5

C[C@H](N[C@@H](CCc1ccccc1)C(=O)O)C(=O)N1[C@H](C(=O)O)C[C@H]2CCCC[C@@H]21 [Trandolaprilat, trandolaprilat]
Half life [1]: 10 h

CC(C)NC[C@@H](O)COc1cccc2ccccc12 [R(+) Propranolol, R-propranolol]
Estimated Optimal Dosage Range [2]: 1 to 10 µM | Inhibition vs. Cells + Adjuvant at 72 Hours ([2]; 1 μM): 1 μM - No - 1.59% | Inhibition vs. Cells + Adjuvant at 72 Hours ([2]; 10 μM): 10 μM - Response - 50.35% | Results Summary [2]: Responder | individual isomers compared with the racemic mixture ([7]; alone): as effective alone as the racemic mixture | attenuating hemangioma cell proliferation, propranolol vs timolol enantiomers ([7]; particularly at 1-5 μM): superior to R- and S-timolol | dose-response across all cell lines [8]: typical dose-response

CCOC(=O)[C@H](CCc1ccccc1)N[C@@H](C)C(=O)N1CCC[C@H]1C(=O)O [Enalapril]
inhibition of proliferating hemangioma cells [2]: good and similar level of inhibition | Results Summary [2]: Responder | inhibition at 1 µM ([2]; 1 μM): 1.55% | inhibition at 10 µM ([2]; 10 μM): 67.9% | Half life: short or long acting [1]: Long acting | pKa [3]: 2.97 | pKa ([3]; second value): 5.35 | Log P [4]: 0.07

CC(C)NCC(O)COc1ccc(CCOCC2CC2)cc1 (stereo not shown) [Betaxolol]
inhibition of proliferating hemangioma cells [2]: no response | Results Summary [2]: Non- | inhibition at 1 µM ([2]; 1 μM): 2.8% | inhibition at 10 µM ([2]; 10 μM): < 0%

O=C(O)[C@@H]1CN(C(=O)N(c2ccccc2)c2ccccc2)CCN1C(=O)N(c1ccccc1)c1ccccc1 [SMM02, (S)-1,4-bis(N,N-diphenylcarbamoyl)piperazine-2-carboxylic acid]
Individual Responders at 72 Hours with ≥30% Inhibition vs. Cells + Adjuvant ([6]; 1 μM): 1 μM - 0/4 | Individual Responders at 72 Hours with ≥30% Inhibition vs. Cells + Adjuvant ([6]; 10 μM): 10 μM - 5/5 | Individual Responders at 72 Hours with ≥30% Inhibition vs. Cells + Adjuvant ([6]; 100 μM): 100 μM - 5/5 | Results Summary [6]: Responder | Estimated Optimal Dosage Range in vitro [6]: 1 to 10 µM | inhibition of all five patient-derived haemangioma cell lines [6]: significantly inhibited | dose-response across all cell lines [8]: non-linear dose-response | threshold concentration ([8]; single agent, consistent inhibition above it): 2.5 µM

CCCCc1nc(Cl)c(CO)n1Cc1ccc(-c2ccccc2-c2nn[nH]n2)cc1 [Losartan]
Individual Responders at 72 Hours with ≥30% Inhibition vs. Cells + Adjuvant ([6]; 1 μM): 1 μM - 0/5 | Individual Responders at 72 Hours with ≥30% Inhibition vs. Cells + Adjuvant ([6]; 10 μM): 10 μM - 0/5 | Results Summary [6]: Non-Responder | inhibition of all five patient-derived haemangioma cell lines [6]: not

O=C(O)CN1C(=O)[C@@H](N[C@@H](CCc2ccccc2)C(=O)O)CCc2ccccc21 [benazeprilat]
Half life [1]: 10 to 11 h
